Active and inactive are the calls of the source. No cut-off for these calls is given here.
Key:
[1] = tested on: A-375; test: Potentiation of DHCHE-mediated apoptosis activity against human A-375 cells assessed as cell killing under blue light 450 nm/20 mW/cm^-2 irradiation at 10 uM after 30 min by CLSM imaging method; assay type: functional; details: 0.5 h
[2] = Toxicity in human A-375 cells xenografted in mouse model assessed as change in body weight in presence of DHCHE under blue light 450 nm/20 mW/cm^-2 irradiation at 1 mg/kg administered intratumoral injection for 14 days; assay type: organism-based; details: in vivo, other, 336 h, route it(Intratumoral), time 14 day
[3] = Toxicity in human A-375 cells xenografted in mouse model assessed as changes in AST in presence of DHCHE under blue light 450 nm/20 mW/cm^-2 irradiation at 1 mg/kg administered intratumoral injection for 14 days by […]; assay type: organism-based; details: in vivo, other, 336 h, route it(Intratumoral), time 14 day
[4] = Toxicity in human A-375 cells xenografted in mouse model assessed as changes in BUN in presence of DHCHE under blue light 450 nm/20 mW/cm^-2 irradiation at 1 mg/kg administered intratumoral injection for 14 days by […]; assay type: organism-based; details: in vivo, other, 336 h, route it(Intratumoral), time 14 day
[5] = Photooxidative transformation of DHCHE assessed as decrease in DHCHE peak under blue light 450 nm/20 mW/cm^-2 irradiation at 0.1 mg/ml from 0 to 20 mins by HRMS spectra analysis; assay type: functional; details: time 0-20 min
[6] = tested on: A-375; test: In vivo antitumor activity against human A-375 cells xenografted in mouse model assessed as potentiation of DHCHE-mediated anticancer activity by measuring decrease in Ki-67 expression at 1 mg/kg administered intratumoral injection for 14 days by […]; assay type: functional, organism-based; details: route it(Intratumoral), time 14.0 day
[7] = tested on: A-375; test: Potentiation of DHNIT-mediated apoptosis activity against human A-375 cells assessed as cell killing under blue light 450 nm/20 mW/cm^-2 irradiation at 10 uM after 30 min by CLSM imaging method; assay type: functional, cell-based
[8] = tested on: A-375; test: In vivo antitumor activity against human A-375 cells xenografted in mouse model assessed as potentiation of DHCHE-mediated tumor growth inhibition under blue light 450 nm/20 mW/cm^-2 irradiation at 1 mg/kg administered intratumoral injection for 14 days; assay type: functional, organism-based; details: route it(Intratumoral), time 14.0 day
[9] = Toxicity in human A-375 cells xenografted in mouse model assessed as changes in ALT in presence of DHCHE under blue light 450 nm/20 mW/cm^-2 irradiation at 1 mg/kg administered intratumoral injection for 14 days by […]; assay type: organism-based; details: in vivo, other, 336 h, route it(Intratumoral), time 14 day
[10] = tested on: A-375; test: Potentiation of DHSAN-mediated apoptosis activity against human A-375 cells assessed as cell killing under blue light 450 nm/20 mW/cm^-2 irradiation at 10 uM after 30 min by CLSM imaging method; assay type: functional, cell-based
[11] = Toxicity in human A-375 cells xenografted in mouse model assessed as changes in total protein in presence of DHCHE under blue light 450 nm/20 mW/cm^-2 irradiation at 1 mg/kg administered intratumoral injection for 14 days by […]; assay type: organism-based; details: in vivo, other, 336 h, route it(Intratumoral), time 14 day
[12] = tested on: A-375; test: Potentiation of DHCHE-mediated apoptosis activity against human A-375 cells assessed as decrease in Bcl2 gene expression under blue light 450 nm/20 mW/cm^-2 irradiation at 10 uM after 10 min by quantitative reverse transcription PCR analysis; assay type: functional, cell-based
[13] = Photooxidative transformation of DHCHE assessed as decrease in DHCHE peak under blue light 450 nm/20 mW/cm^-2 irradiation at 0.1 mg/ml from 0 to 20 mins by NMR spectra analysis; assay type: functional; details: time 0-20 min
[14] = Toxicity in human A-375 cells xenografted in mouse model assessed as inflammation lesions in liver in presence of DHCHE under blue light 450 nm/20 mW/cm^-2 irradiation at 1 mg/kg administered intratumoral injection for 14 days by H and E staining based assay; assay type: organism-based; details: in vivo, other, 336 h, route it(Intratumoral), time 14 day
[15] = Photooxidative transformation of DHCHE assessed as decrease in DHCHE peak under blue light 450 nm/20 mW/cm^-2 irradiation at 0.1 mg/ml by HPLC analysis (reference value: 82.7%); assay type: functional; design: scale not given: the % may be the effect or the level left
[16] = tested on: A-375; test: Potentiation of DHCHE-mediated apoptosis activity against human A-375 cells assessed as increase in Caspase 3 gene expression under blue light 450 nm/20 mW/cm^-2 irradiation at 10 uM after 10 min by quantitative reverse transcription PCR analysis; assay type: functional, cell-based
[17] = Toxicity in human A-375 cells xenografted in mouse model assessed as inflammation lesions in heart in presence of DHCHE under blue light 450 nm/20 mW/cm^-2 irradiation at 1 mg/kg administered intratumoral injection for 14 days by H and E staining based assay; assay type: organism-based; details: in vivo, other, 336 h, route it(Intratumoral), time 14 day
[18] = tested on: A-375; test: In vivo antitumor activity against human A-375 cells xenografted in mouse model assessed as potentiation of DHCHE-mediated anticancer activity by measuring increase in vacuole and condensed nuclei at 1 mg/kg administered intratumoral injection for 14 days by […]; assay type: functional, organism-based; details: route it(Intratumoral), time 14.0 day
[19] = tested on: A-375; test: Potentiation of DHCHE-mediated apoptosis activity against human A-375 cells assessed as increase in Bax gene expression under blue light 450 nm/20 mW/cm^-2 irradiation at 10 uM after 10 min by quantitative reverse transcription PCR analysis; assay type: functional, cell-based
[20] = Photooxidative transformation of DHNIT assessed as increase in generation of NIT under blue light 450 nm/20 mW/cm^-2 irradiation at 10 uM by UV-vis absorption spectra analysis; assay type: functional
[21] = tested on: A-375; test: Potentiation of DHNIT-mediated anticancer activity against human A-375 cells assessed as cell killing under blue light 450 nm/20 mW/cm^-2 irradiation at 10 uM after 10 min by MTT assay; assay type: functional, cell-based
[22] = Photooxidative transformation of DHCHE assessed as increase in generation of CHE under blue light 450 nm/20 mW/cm^-2 irradiation at 10 uM by UV-vis absorption spectra analysis; assay type: functional
[23] = tested on: A-375; test: Potentiation of DHCHE-mediated anticancer activity against human A-375 cells assessed as cell killing under blue light 450 nm/20 mW/cm^-2 irradiation at 10 uM after 10 min by MTT assay; assay type: functional, cell-based
[24] = Toxicity in human A-375 cells xenografted in mouse model assessed as inflammation lesions in spleen in presence of DHCHE under blue light 450 nm/20 mW/cm^-2 irradiation at 1 mg/kg administered intratumoral injection for 14 days by H and E staining based assay; assay type: organism-based; details: in vivo, other, 336 h, route it(Intratumoral), time 14 day
[25] = Photooxidative transformation of DHSAN assessed as increase in generation of SAN under blue light 450 nm/20 mW/cm^-2 irradiation at 10 uM by UV-vis absorption spectra analysis; assay type: functional
[26] = tested on: A-375; test: Potentiation of DHCHE-mediated apoptosis activity against human A-375 cells assessed as increase in P53 gene expression under blue light 450 nm/20 mW/cm^-2 irradiation at 10 uM after 10 min by quantitative reverse transcription PCR analysis; assay type: functional, cell-based
[27] = Toxicity in human A-375 cells xenografted in mouse model assessed as inflammation lesions in intestine in presence of DHCHE under blue light 450 nm/20 mW/cm^-2 irradiation at 1 mg/kg administered intratumoral injection for 14 days by H and E staining based assay; assay type: organism-based; details: in vivo, other, 336 h, route it(Intratumoral), time 14 day
[28] = Toxicity in human A-375 cells xenografted in mouse model assessed as inflammation lesions in lung in presence of DHCHE under blue light 450 nm/20 mW/cm^-2 irradiation at 1 mg/kg administered intratumoral injection for 14 days by H and E staining based assay; assay type: organism-based; details: in vivo, other, 336 h, route it(Intratumoral), time 14 day
[29] = tested on: A-375; test: Photooxidative transformation of DHCHE in human A-375 cells assessed as increase in red fluorescence in nucleus under blue light 450 nm/20 mW/cm^-2 irradiation at 10 uM after 1 min by confocal laser scanning microscopy; assay type: ADME, cell-based; details: a-375, 1 min
[30] = Toxicity in human A-375 cells xenografted in mouse model assessed as inflammation lesions in kidney in presence of DHCHE under blue light 450 nm/20 mW/cm^-2 irradiation at 1 mg/kg administered intratumoral injection for 14 days by H and E staining based assay; assay type: organism-based; details: in vivo, other, 336 h, route it(Intratumoral), time 14 day
[31] = tested on: A-375; test: Potentiation of DHSAN-mediated anticancer activity against human A-375 cells assessed as cell killing under blue light 450 nm/20 mW/cm^-2 irradiation at 10 uM after 10 min by MTT assay; assay type: functional, cell-based
[32] = tested on: A-375; test: In vivo antitumor activity against human A-375 cells xenografted in mouse model assessed as potentiation of DHCHE-mediated anticancer activity by measuring increase in caspase 3 expression at 1 mg/kg administered intratumoral injection for 14 days by […]; assay type: functional, organism-based; details: route it(Intratumoral), time 14.0 day

For `Cc1cc2nc3c(=O)[nH]c(=O)nc-3n(C[C@H](O)[C@H](O)[C@H](O)CO)c2cc1C` [RIBOFLAVIN], the Activity [1] was 61.7%, the Activity [2] was “Non-Toxic” and the Activity [3] was “Non-Toxic”. The Activity [4] was “Non-Toxic”, the Drug metabolism [5] was “Metabolite detected” and the Activity [6] was “Active”. The Activity [7] was “Active”, the Activity [8] was “Active” and the Activity [9] was “Non-Toxic”. For the same compound, the Activity [10] was “Active”, the Activity [11] was “Non-Toxic” and the Activity [12] was “Active”. The Drug metabolism [13] was “Metabolite detected”, the Activity [14] was “Non-Toxic” and the Activity [15] was 11.2%. The Activity [16] was “Active”, the Activity [17] was “Non-Toxic” and the Activity [18] was “Active”. For the same compound, the Activity [19] was “Active”, the Drug metabolism [20] was “Metabolite detected” and the Activity [21] was “Active”. For the same compound, the Drug metabolism [22] was “Metabolite detected”, the Activity [23] was “Active” and the Activity [24] was “Non-Toxic”. For the same compound, the Drug metabolism [25] was “Metabolite detected”, the Activity [26] was “Active” and the Activity [27] was “Non-Toxic”. The Activity [28] was “Non-Toxic”, the Drug metabolism [29] was “Metabolite_Detected” and the Activity [30] was “Non-Toxic”. For the same compound, the Activity [31] was “Active” and the Activity [32] was “Active”.

Source: ChEMBL document CHEMBL5150052, “Riboflavin-Promoted In Situ Photoactivation of Dihydroalkaloid Prodrugs for Cancer Therapy” (J Med Chem, 2022)
